According to paper PMC7673538 (PLoS Biology, 2020):
Read-outs that look alike come from different tables or passages of the source.

Assays:
EV-D68 = test: microbe, parasite or virus in culture; type: cell-based, enterovirus D68; conditions: Enterovirus D
in vitro [1] = conditions: human
PV-1 = test: microbe, parasite or virus in culture; type: cell-based, poliovirus 1; conditions: Enterovirus C, HeLa R19, read-out: EC50 PV-1
CV-B3 [2] = test: microbe, parasite or virus in culture; type: cell-based, coxsackievirus B3; conditions: Enterovirus B, CVB3, BGM
in vitro [3] = conditions: human; remark: listed apart in the source
HRV-A2 = test: microbe, parasite or virus in culture; type: cell-based, human rhinovirus; conditions: Human rhinovirus sp., HRVA2, HeLa R19, read-out: EC50 HRV-A2
in vitro [4] = conditions: monkey
EV-A71 = test: microbe, parasite or virus in culture; type: cell-based, enterovirus A71; conditions: Enterovirus A
CV-B3 [5] = test: microbe, parasite or virus in culture; type: cell-based, coxsackievirus B3; conditions: for EC50: Enterovirus B
CV-B3 [6] = test: microbe, parasite or virus in culture; type: cell-based, coxsackievirus B3; conditions: for EC50: Enterovirus B; remark: listed apart in the source
HRV-B14 = test: microbe, parasite or virus in culture; type: cell-based, human rhinovirus; conditions: Human rhinovirus sp.
CV-A24 = test: microbe, parasite or virus in culture; type: cell-based, coxsackievirus A24; conditions: Enterovirus C, CVA24, HeLa R19, read-out: EC50 CV-A24
[7] = EVD68, HeLa R19, read-out: EC50 EV-D68
[8] = EVD68, HeLa R19, read-out: EC50 Exp1
[9] = EVD68, HeLa R19, read-out: EC50 Exp2
[10] = EVA71, HeLa R19, read-out: EC50 EV-A71
[11] = CVB3, HeLa R19, read-out: CV-B3 EC50 Average
[12] = CVB3, HeLa R19, read-out: CV-B3 Exp 1 EC50
[13] = CVB3, HeLa R19, read-out: CV-B3 Exp2 EC50
[14] = CVB3, HeLa R19, read-out: EC50 HelaR19 Average
[15] = CVB3, HeLa R19, read-out: Exp 1 EC50 HelaR19
[16] = CVB3, HeLa R19, read-out: Exp 2 EC50 HelaR19
[17] = CVB3, HAP1, read-out: EC50 Hap1 Average
[18] = CVB3, HAP1, read-out: Exp 2 EC50 Hap1
[19] = HRVB14, HeLa R19, read-out: EC50 HRV-B14
[20] = CVB3, HAP1, read-out: Exp 1 EC50 Hap1

## O=C(c1ccco1)N(Cc1ccccc1)c1ccc(C(F)(F)F)cc1 [Compound 19i, N-benzyl-N-(4-(trifluoromethyl)phenyl)furan-2-carboxamide]
EV-D68; [7]
  EC50: 3.35 ± 0.19 µM
EV-D68; [8]
  EC50: 3.16 µM
EV-D68; [9]
  EC50: 3.54 µM
In vitro [1]; CC50 Average
  CC50: > 30 µM
In vitro [1]; CC50 HelaR19 Average
  CC50: 68.5 µM
In vitro [1]; Exp 1 CC50
  CC50: > 30 µM
In vitro [1]; Exp 1 CC50 HelaR19
  CC50: 68 µM
In vitro [1]; Exp2 CC50
  CC50: > 30 µM
In vitro [1]; Exp 2 CC50 HelaR19
  CC50: 69 µM
PV-1
  EC50: > 30 µM
CV-B3 [2]; read-out: EC50 BGM Average
  EC50: 1.71 µM
CV-B3 [2]; read-out: Exp 1 EC50 BGM
  EC50: 1.42 µM
CV-B3 [2]; read-out: Exp 2 EC50 BGM
  EC50: 1.99 µM
HeLa R19 cells; human, monkey
  cytotoxicity (in words): cytotoxicity in a similar range as the parental compound 1
In vitro [3]; CC50
  CC50: > 100 µM
In vitro [3]; CC50 Hap1 Average
  CC50: > 100 µM
In vitro [3]; Exp 1 CC50 Hap1
  CC50: > 100 µM
In vitro [3]; Exp 2 CC50 Hap1
  CC50: > 100 µM
HRV-A2
  EC50: > 30 µM
In vitro [4]; CC50
  CC50: 55.4 ± 0.05 µM
In vitro [4]; CC50 BGM Average
  CC50: 55.4 µM
In vitro [4]; Exp 1 CC50 BGM
  CC50: 55.3 µM
In vitro [4]; Exp 2 CC50 BGM
  CC50: 55.5 µM
EV-A71; [10]
  EC50: > 30 µM
CV-B3 [5]
  effect of the substitution on antiviral activity against CV-B3 (in words): had little effect
CV-B3 [5]; CVB3, HeLa
  EC50: 2.75 ± 0.25 µM
CV-B3 [5]; [11]
  EC50: 2.45 µM
CV-B3 [5]; [12]
  EC50: 2.35 µM
CV-B3 [5]; [13]
  EC50: 2.55 µM
CV-B3 [5]; [14]
  EC50: 2.78 µM
CV-B3 [5]; [15]
  EC50: 2.52 µM
CV-B3 [5]; [16]
  EC50: 3.03 µM
CV-B3 [6]; CVB3, HAP1
  EC50: 1.75 ± 0.29 µM
CV-B3 [6]; [17]
  EC50: 1.74 µM
CV-B3 [6]; [18]
  EC50: 2.03 µM
HRV-B14; [19]
  EC50: > 30 µM
CV-A24
  EC50: > 30 µM

## CC(C)c1ccc(CN(C(=O)c2ccco2)c2ccccc2)cc1 [Compound 19h, N-(4-Isopropylbenzyl)-N-phenylfuran-2-carboxamide]
EV-D68; [7]
  EC50: > 30 µM
EV-D68; [8]
  EC50: > 30 µM
EV-D68; [9]
  EC50: > 30 µM
In vitro [1]; CC50 Average
  CC50: > 30 µM
In vitro [1]; CC50 HelaR19 Average
  CC50: 42.7 µM
In vitro [1]; Exp 1 CC50
  CC50: > 30 µM
In vitro [1]; Exp 1 CC50 HelaR19
  CC50: 44.5 µM
In vitro [1]; Exp2 CC50
  CC50: > 30 µM
In vitro [1]; Exp 2 CC50 HelaR19
  CC50: 41 µM
PV-1
  EC50: > 30 µM
CV-B3 [2]
  EC50: > 100 µM
HeLa R19 cells; human
  CC50: 42.8 ± 1.75 µM
HeLa R19 cells; human, monkey
  cytotoxicity (in words): cytotoxicity in a similar range as the parental compound 1
In vitro [3]; CC50 Hap1 Average
  CC50: 48.7 µM
In vitro [3]; Exp 1 CC50 Hap1
  CC50: 48.4 µM
In vitro [3]; Exp 2 CC50 Hap1
  CC50: 49.1 µM
HRV-A2
  EC50: > 30 µM
In vitro [4]; CC50
  CC50: 46.8 ± 1.48 µM
In vitro [4]; CC50 BGM Average
  CC50: 46.8 µM
In vitro [4]; Exp 1 CC50 BGM
  CC50: 45.4 µM
In vitro [4]; Exp 2 CC50 BGM
  CC50: 48.3 µM
EV-A71; [10]
  EC50: 1.89 ± 0.21 µM
EV-A71; EVA71, HeLa R19, read-out: EC50 Exp1
  EC50: 1.68 µM
EV-A71; EVA71, HeLa R19, read-out: EC50 Exp2
  EC50: 2.1 µM
CV-B3 [5]
  antiviral activity against CV-B3 (in words): showed antiviral activity
  effect of the substitution on antiviral activity against CV-B3 (in words): decreased the antiviral activity to a larger extent
CV-B3 [5]; CVB3, HeLa
  EC50: 7.62 ± 0.93 µM
CV-B3 [5]; [11]
  EC50: 7.03 µM
CV-B3 [5]; [12]
  EC50: 7.95 µM
CV-B3 [5]; [13]
  EC50: 6.11 µM
CV-B3 [5]; [14]
  EC50: 7.65 µM
CV-B3 [5]; [15]
  EC50: 7.5 µM
CV-B3 [5]; [16]
  EC50: 7.8 µM
CV-B3 [6]
  antiviral activity against CV-B3 in HAP1 cells (in words): showed antiviral activity
CV-B3 [6]; [20]
  EC50: 4.28 µM
CV-B3 [6]; [18]
  EC50: 3.98 µM
HRV-B14; HRVB14, HeLa R19, read-out: EC50 Exp1
  EC50: 5.55 µM
HRV-B14; HRVB14, HeLa R19, read-out: EC50 Exp2
  EC50: 3.72 µM
HRV-B14; [19]
  EC50: 4.64 ± 0.92 µM
CV-A24
  EC50: > 30 µM

## COc1ccc(N(Cc2ccco2)C(=O)c2ccc(F)cc2)cc1 [Compound 15, 4-Fluoro-N-(furan-2-ylmethyl)-N-(4-methoxyphenyl)benzamide]
In vitro [1]; CC50
  CC50: > 30 µM
In vitro [1]; CC50 Average
  CC50: > 30 µM
In vitro [1]; Exp 1 CC50
  CC50: > 30 µM
In vitro [1]; Exp2 CC50
  CC50: > 30 µM
CV-B3 [5]
  antiviral activity against CV-B3 (in words): abolished antiviral acitivty
CV-B3 [5]; CVB3, HeLa R19
  EC50: > 30 µM
CV-B3 [5]; [11]
  EC50: > 30 µM
CV-B3 [5]; [12]
  EC50: > 30 µM
CV-B3 [5]; [13]
  EC50: > 30 µM

## COc1ccc(N(Cc2ccc(F)cc2)C(=O)c2ccccn2)cc1 [Compound 5e, N-(4-fluorobenzyl)-N-(4-methoxyphenyl)picolinamide]
EV-D68; [7]
  EC50: 10.5 ± 1.37 µM
EV-D68; [8]
  EC50: 11.8 µM
EV-D68; [9]
  EC50: 9.08 µM
In vitro [1]; CC50 Average
  CC50: > 30 µM
In vitro [1]; CC50 HelaR19 Average
  CC50: > 100 µM
In vitro [1]; Exp 1 CC50
  CC50: > 30 µM
In vitro [1]; Exp 1 CC50 HelaR19
  CC50: > 100 µM
In vitro [1]; Exp2 CC50
  CC50: > 30 µM
In vitro [1]; Exp 2 CC50 HelaR19
  CC50: > 100 µM
PV-1
  EC50: > 30 µM
CV-B3 [2]; read-out: EC50 BGM Average
  EC50: 17.8 µM
CV-B3 [2]; read-out: Exp 1 EC50 BGM
  EC50: 16.7 µM
CV-B3 [2]; read-out: Exp 2 EC50 BGM
  EC50: 18.9 µM
HeLa R19 cells
  cytotoxicity (in words): no cytotoxicity
In vitro [3]; CC50
  CC50: > 100 µM
In vitro [3]; CC50 Hap1 Average
  CC50: > 100 µM
In vitro [3]; Exp 1 CC50 Hap1
  CC50: > 100 µM
In vitro [3]; Exp 2 CC50 Hap1
  CC50: > 100 µM
HRV-A2
  EC50: > 30 µM
In vitro [4]; CC50
  CC50: > 100 µM
In vitro [4]; CC50 BGM Average
  CC50: > 100 µM
In vitro [4]; Exp 1 CC50 BGM
  CC50: > 100 µM
In vitro [4]; Exp 2 CC50 BGM
  CC50: > 100 µM
EV-A71; [10]
  EC50: > 30 µM
CV-B3 [5]; [11]
  EC50: 6.44 µM
CV-B3 [5]; [12]
  EC50: 6.02 µM
CV-B3 [5]; [13]
  EC50: 6.86 µM
CV-B3 [5]; [14]
  EC50: 8.87 µM
CV-B3 [5]; [15]
  EC50: 8.41 µM
CV-B3 [5]; [16]
  EC50: 9.32 µM
CV-B3 [6]; CVB3, HAP1
  EC50: 15.8 ± 1.65 µM
CV-B3 [6]; [17]
  EC50: 15.9 µM
CV-B3 [6]; [20]
  EC50: 17.5 µM
CV-B3 [6]; [18]
  EC50: 14.2 µM
HRV-B14; [19]
  EC50: > 30 µM
CV-A24
  EC50: > 30 µM

## COc1ccc(N(Cc2ccccc2)C(=O)c2ccco2)cc1 [Compound 19c, N-Benzyl-N-(4-methoxyphenyl)furan-2-carboxamide]
EV-D68; [7]
  EC50: 8.94 ± 0.82 µM
EV-D68; [8]
  EC50: 8.12 µM
EV-D68; [9]
  EC50: 9.76 µM
In vitro [1]; CC50 Average
  CC50: > 30 µM
In vitro [1]; CC50 HelaR19 Average
  CC50: > 100 µM
In vitro [1]; Exp 1 CC50
  CC50: > 30 µM
In vitro [1]; Exp 1 CC50 HelaR19
  CC50: > 100 µM
In vitro [1]; Exp2 CC50
  CC50: > 30 µM
In vitro [1]; Exp 2 CC50 HelaR19
  CC50: > 100 µM
PV-1
  EC50: > 30 µM
CV-B3 [2]; read-out: EC50 BGM Average
  EC50: 4.3 µM
CV-B3 [2]; read-out: Exp 1 EC50 BGM
  EC50: 3.95 µM
HeLa R19 cells
  cytotoxicity (in words): did not show any cytotoxicity
In vitro [3]; CC50
  CC50: > 100 µM
In vitro [3]; CC50 Hap1 Average
  CC50: > 100 µM
In vitro [3]; Exp 1 CC50 Hap1
  CC50: > 100 µM
In vitro [3]; Exp 2 CC50 Hap1
  CC50: > 100 µM
HRV-A2
  EC50: > 30 µM
In vitro [4]; CC50
  CC50: > 100 µM
In vitro [4]; CC50 BGM Average
  CC50: > 100 µM
In vitro [4]; Exp 1 CC50 BGM
  CC50: > 100 µM
In vitro [4]; Exp 2 CC50 BGM
  CC50: > 100 µM
EV-A71; [10]
  EC50: > 30 µM
CV-B3 [5]
  increase or decrease of antiviral activity against CV-B3: less than 3 fold
CV-B3 [5]; CVB3, HeLa
  EC50: 4.42 ± 0.36 µM
CV-B3 [5]; [11]
  EC50: 4.07 µM
CV-B3 [5]; [12]
  EC50: 4.32 µM
CV-B3 [5]; [13]
  EC50: 3.82 µM
CV-B3 [5]; [14]
  EC50: 4.41 µM
CV-B3 [5]; [15]
  EC50: 4.06 µM
CV-B3 [5]; [16]
  EC50: 4.77 µM
CV-B3 [6]; [17]
  EC50: 2.12 µM
CV-B3 [6]; [20]
  EC50: 2.15 µM
CV-B3 [6]; [18]
  EC50: 2.09 µM
HRV-B14; [19]
  EC50: > 30 µM
CV-A24
  EC50: > 30 µM
